This experiment relates to P388 leukemia ip, CD2F1 mice, survival T/C. In words: NCI In Vivo Anticancer Drug Screen. Data for tumor model P388 Leukemia (intraperitoneal) in CD2F1 (CDF1) mice. The following applies: endpoint: median survival time, higher = longer survival. Summed up: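 Mice carrying the transplanted tumor received test compound or vehicle. Survival was recorded in each group, and the value is the treated-group measurement divided by that of the vehicle-treated control group.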

The mark [1] stands for this setting: dose: 50.0 mg/kg/injection, schedule: Q01DX009 (ip), vehicle: saline with Tween-80.
The mark [2] stands for this setting: dose: 100.0 mg/kg/injection, schedule: Q01DX009 (ip), vehicle: saline with Tween-80.
Setting [3] is: dose: 200.0 mg/kg/injection, schedule: Q01DX009 (ip), vehicle: saline with Tween-80.
[4] abbreviates: dose: 50.0 mg/kg/injection, schedule: Q01DX005 (ip), vehicle: Klucel (hydroxypropylcellulose) (HPC).
Setting [5] is: dose: 100.0 mg/kg/injection, schedule: Q01DX005 (ip), vehicle: Klucel (hydroxypropylcellulose) (HPC).
[6] abbreviates: dose: 200.0 mg/kg/injection, schedule: Q01DX005 (ip), vehicle: Klucel (hydroxypropylcellulose) (HPC).
The mark [7] stands for this setting: dose: 50.0 mg/kg/injection, schedule: Q01DX005 (ip), vehicle: saline with Tween-80.
The mark [8] stands for this setting: dose: 100.0 mg/kg/injection, schedule: Q01DX005 (ip), vehicle: saline with Tween-80.
Where [9] appears, read: dose: 200.0 mg/kg/injection, schedule: Q01DX005 (ip), vehicle: saline with Tween-80.
Setting [10] is: dose: 8.0 mg/kg/injection, schedule: Q01DX009 (ip), vehicle: Klucel (hydroxypropylcellulose) (HPC).
Where [11] appears, read: dose: 16.0 mg/kg/injection, schedule: Q01DX009 (ip), vehicle: Klucel (hydroxypropylcellulose) (HPC).
Where [12] appears, read: dose: 32.0 mg/kg/injection, schedule: Q01DX009 (ip), vehicle: Klucel (hydroxypropylcellulose) (HPC).
[13] abbreviates: dose: 12.5 mg/kg/injection, schedule: Q01DX009 (ip), vehicle: saline.
[14] abbreviates: dose: 25.0 mg/kg/injection, schedule: Q01DX009 (ip), vehicle: saline.
Where [15] appears, read: dose: 50.0 mg/kg/injection, schedule: Q01DX009 (ip), vehicle: saline.

The source of these data is PubChem BioAssay AID330 (DTP/NCI, 2004).

Where “and” joins values, the source holds several entries; their conditions need not be identical. Equal values may be shown once. Toxic doses and inconclusive results are not listed.

Take `ClC1=CC=c2ccc3c(c2[N-]1)[N-]C(Cl)=CC=3.ClC1=CC=c2ccc3c(c2[N-]1)[N-]C(Cl)=CC=3.O=[N+]([O-])O.[Cu+]`: the T/C reads like this: (dose: 6.25 mg/kg/injection, schedule: Q04DX002 (ip), vehicle: suspension in saline) 101 % of control; (dose: 12.5 mg/kg/injection, schedule: Q04DX002 (ip), vehicle: suspension in saline) 93 % of control; (dose: 25.0 mg/kg/injection, schedule: Q04DX002 (ip), vehicle: suspension in saline) 98 % of control.
As to `CCCCCOCC(=O)OC`, the T/C under setting [1] was 98 % of control, the T/C under setting [2] is 102 % of control and the T/C under setting [3] is 103 % of control.
Regarding `CC(C)(C)c1ccc(OCCSCCOc2ccc(C(C)(C)C)cc2)cc1`, the T/C is, setting by setting: under setting [1], 90 % of control; under setting [2], 90 % of control; under setting [3], 90 % of control.
Regarding `CCCNC(=O)CCC(NS(=O)(=O)c1ccc(C)cc1)C(=O)O` (configuration not stated), the T/C was 100 % of control under setting [4], 100 % of control under setting [5] and 98 % of control under setting [6].
On to `O=c1c2ccccc2oc2nc3ccc(Cl)cc3n12`, for which the T/C runs as follows: under setting [7], 112 % of control; under setting [8], 101 % of control; under setting [9], 98 % of control.
In the case of `Cc1ccc(Nc2nnc(CSc3ccc(Cl)cc3)s2)c(S(=O)(=O)O)c1`, the T/C was 104 % of control (dose: 60.0 mg/kg/injection, schedule: Q01DX005 (ip), vehicle: saline with Tween-80); 94 % of control (dose: 120.0 mg/kg/injection, schedule: Q01DX005 (ip), vehicle: saline with Tween-80); 104 % of control (dose: 240.0 mg/kg/injection, schedule: Q01DX005 (ip), vehicle: saline with Tween-80).
With `CC(C)CC(NC(=O)CCNC(=O)OCc1ccccc1)C(=O)O` (configuration not stated), the T/C was 100 % of control under setting [4], 101 % of control under setting [5] and 91 % of control under setting [6].
Regarding `OCC1CC=CCC1` (configuration not stated), the T/C was 90 % of control (dose: 100.0 mg/kg/injection, schedule: Q04DX003 (ip), vehicle: saline with Tween-80); 100 % of control (dose: 200.0 mg/kg/injection, schedule: Q04DX003 (ip), vehicle: saline with Tween-80); 90 % of control (dose: 400.0 mg/kg/injection, schedule: Q04DX003 (ip), vehicle: saline with Tween-80).
As to `O=C1c2ccccc2C2CNC1(O)c1ccccc12` (configuration not stated), the T/C under setting [7] was 97 % of control, the T/C under setting [8] was 97 % of control and the T/C under setting [9] was 102 % of control.
Take `CC(SC(C)C(=O)N/N=C/c1ccc(C#N)cc1)C(=O)N/N=C\c1ccc(C#N)cc1` (configuration not stated): the T/C runs as follows: (dose: 100.0 mg/kg/injection, schedule: Q01DX009 (ip), vehicle: suspension in saline) 97 % of control; (dose: 200.0 mg/kg/injection, schedule: Q01DX009 (ip), vehicle: suspension in saline) 101 % of control; (dose: 400.0 mg/kg/injection, schedule: Q01DX009 (ip), vehicle: suspension in saline) 90 % of control.
Consider `[N-]=[N+]=NC(=O)c1cccs1`, for which the T/C by setting is: (dose: 12.5 mg/kg/injection, schedule: Q01DX009 (ip), vehicle: saline with Tween-80) 100 % of control; (dose: 25.0 mg/kg/injection, schedule: Q01DX009 (ip), vehicle: saline with Tween-80) 101 % of control; under setting [1], 100 % of control.
Turning to `C=C1C(=O)OC2C/C(C)=C/CC/C(C)=C/CCC3(C)OC3CC12` (configuration not stated), the T/C is, setting by setting: (dose: 4.0 mg/kg/injection, schedule: Q01DX009 (ip), vehicle: Klucel (hydroxypropylcellulose) (HPC)) 104 % of control; under setting [10], 104 % of control; under setting [11], 108 % of control; under setting [12], 105 % of control.
Consider `Cc1cc(O)c2c(c1)C(=O)c1cccc(O)c1C2=O`, for which the T/C was 100 % of control (dose: 6.25 mg/kg/injection, schedule: Q01DX009 (ip), vehicle: saline); 111 % of control under setting [13]; 117 % of control under setting [14]; 108 % of control under setting [15].
As to `O=P1(c2ccccc2)OCC2=C(c3ccccc3)CC2=C1c1ccccc1` (configuration not stated), the T/C was 105 % of control (dose: 50.0 mg/kg/injection, schedule: Q01DX009 (ip), vehicle: Klucel (hydroxypropylcellulose) (HPC)); 103 % of control (dose: 100.0 mg/kg/injection, schedule: Q01DX009 (ip), vehicle: Klucel (hydroxypropylcellulose) (HPC)); 105 % of control (dose: 200.0 mg/kg/injection, schedule: Q01DX009 (ip), vehicle: Klucel (hydroxypropylcellulose) (HPC)).
Consider `CN(C)C1c2cc3ccccc3nc2-c2ccccc2C1(C)C` (configuration not stated), for which the T/C is 95 % of control (dose: 12.5 mg/kg/injection, schedule: Q01DX005 (ip), vehicle: saline with Tween-80); 95 % of control (dose: 25.0 mg/kg/injection, schedule: Q01DX005 (ip), vehicle: saline with Tween-80); 100 % of control and 101 % of control under setting [7]; 97 % of control under setting [9].
As for `O=C(Nc1ccc(Cl)c(Cl)c1)Sc1ccc(O)cc1`, the T/C under setting [13] was 91 % of control; the T/C under setting [14] is 91 % of control; the T/C under setting [1] is 96 % of control; the T/C under setting [15] is 117 % of control; the T/C under setting [2] is 91 % of control.
For the compound `c1c[nH]c(C2Nc3ccccc3CO2)c1` (configuration not stated), the T/C was 115 % of control under setting [4], 107 % of control under setting [5] and 112 % of control under setting [6].
As for `CONCc1ccc(C(=O)NC(C)C)cc1`, the T/C is, setting by setting: (dose: 25.0 mg/kg/injection, schedule: Q01DX009 (ip), vehicle: distilled water + Tween-80) 105 % of control; (dose: 50.0 mg/kg/injection, schedule: Q01DX009 (ip), vehicle: distilled water + Tween-80) 106 % of control; (dose: 100.0 mg/kg/injection, schedule: Q01DX009 (ip), vehicle: distilled water + Tween-80) 90 % of control; (dose: 200.0 mg/kg/injection, schedule: Q01DX009 (ip), vehicle: distilled water + Tween-80) 90 % of control.
Take `CCNC1CC(C)(O)Cc2cc3c(c(O)c21)C(=O)c1c(O)cc2c(c1C3=O)OC1OC2(C)C(O)C(N(C)C)C1O` (configuration not stated): the T/C (dose: 6.25 mg/kg/injection, schedule: Q01DX009 (ip), vehicle: other) was 123 % of control; the T/C (dose: 25.0 mg/kg/injection, schedule: Q01DX009 (ip), vehicle: other) is 154 % of control; the T/C (dose: 50.0 mg/kg/injection, schedule: Q01DX009 (ip), vehicle: other) is 120 % of control.
For the compound `COc1ccc(C2OCC3C2CO[C@H]3c2ccc(OC)c(OC)c2)cc1OC` (mixture of isomers), the T/C is 90 % of control under setting [10]; 97 % of control under setting [11]; 91 % of control under setting [12]; 89 % of control (dose: 64.0 mg/kg/injection, schedule: Q01DX009 (ip), vehicle: Klucel (hydroxypropylcellulose) (HPC)).
